For one assay, the target named is mouse TAAR1 (Mus musculus (Mouse), UniProt Q923Y8). Nature of the assay: Radioligand binding assay on mouse TAAR1. As to conditions: mouse TAAR1, membranes of stably transfected HEK-293 cells; first value of the pair; read-out: Ki (μM) mouse/rat: mouse. On the procedure:
(§1) For the construction of expression plasmids the coding sequences of human, rat and mouse TAAR 1 were amplified from genomic DNA essentially as described by Lindemann et al.. The Expand High Fidelity PCR System (Roche Diagnostics) was used with 1.5 mM Mg^2+ and purified PCR products were cloned into pCR2.1-TOPO cloning vector (Invitrogen) following the instructions of the manufacturer. PCR products were subcloned into the pIRESneo2 vector (BD Clontech, Palo Alto, Calif.), and expression vectors were sequence verified before introduction in cell lines.
(§2) For the generation of stably transfected cell lines HEK293 cells were transfected with the pIRESneo2 expression plasmids containing the TAAR coding sequences (described above) with Lipofectamine 2000 (Invitrogen) according to the instructions of the manufacturer, and 24 hrs post transfection the culture medium was supplemented with 1 mg/ml G418 (Sigma, Buchs, Switzerland). After a culture period of about 10 d clones were isolated, expanded and tested for responsiveness to trace amines (all compounds purchased from Sigma) with the cAMP Biotrak Enzyme immunoassay (EIA) System (Amersham) following the non-acetylation EIA procedure provided by the manufacturer.
Radioligand Binding Assay on Mouse TAAR1
(§3) Membrane Preparation and Radioligand Binding.
(§4) Cells were released from culture flasks using trypsin/EDTA, harvested, washed twice with ice-cold PBS (without Ca^2+ and Mg^2+), pelleted at 1,000 rpm for 5 min at 4° C., frozen and stored at −80° C. Frozen pellets were suspended in 20 ml HEPES-NaOH (20 mM, pH 7.4) containing 10 mM EDTA and homogenized with a Polytron (PT 6000, Kinematica) at 14′000 rpm for 20 s. The homogenate was centrifuged at 48,000×g for 30 min at 4° C. Subsequently, the supernatant was removed and discarded, and the pellet resuspended in 20 ml HEPES-NaOH (20 mM, pH 7.4) containing 0.1 mM EDTA using the Polytron (20 s at 14′000 rpm). This procedure was repeated and the final pellet resuspended in HEPES-NaOH containing 0.1 mM EDTA and homogenized using the Polytron. Typically, aliquots of 2 ml membrane portions were stored at −80° C. With each new membrane batch the dissociation constant (Kd) was determined via a saturation curve. […] Nonspecific binding was defined as the amount of ^3[H]—(S)-4-[(ethyl-phenyl-amino)-methyl]-4,5-dihydro-oxazol-2-ylamine bound in the presence of 10 μM unlabeled ligand. All compounds were tested at a broad range of concentrations (10 pM to 10 μM) in duplicates. […] The 96 deep well plates were incubated for 1 hr at 4° C. Incubations were terminated by rapid filtration through Unifilter-96 plates (Packard Instrument Company) and glass filters GF/C (Perkin Elmer) presoaked for 1 hr in polyethylenimine (0.3%) and washed 3 times with 1 ml of cold binding buffer. After addition of 45 μl of Microscint 40 (PerkinElmer) the Unifilter-96 plate was sealed and after 1 hr the radioactivity counted using a TopCount Microplate Scintillation Counter (Packard Instrument Company).

The next assay addresses rat TAAR1 (Rattus norvegicus (Rat), UniProt Q923Y9). The assay is described as follows: Radioligand binding assay on rat TAAR1. Conditions: rat TAAR1, membranes of stably transfected HEK-293 cells; second value of the pair; read-out: Ki (μM) mouse/rat: rat. The procedure: as §1, §2
Radioligand Binding Assay on Rat TAAR1
as §3
as §4, with “1′000” for “1,000”, “48′000×g” for “48,000×g”

The values that follow come from patent publication US9840501B2, “Morpholin-pyridine derivatives” (Hoffmann-La Roche Inc., priority 2014, dated 2017).

rat TAAR1, sequence (Q923Y9 whole entry): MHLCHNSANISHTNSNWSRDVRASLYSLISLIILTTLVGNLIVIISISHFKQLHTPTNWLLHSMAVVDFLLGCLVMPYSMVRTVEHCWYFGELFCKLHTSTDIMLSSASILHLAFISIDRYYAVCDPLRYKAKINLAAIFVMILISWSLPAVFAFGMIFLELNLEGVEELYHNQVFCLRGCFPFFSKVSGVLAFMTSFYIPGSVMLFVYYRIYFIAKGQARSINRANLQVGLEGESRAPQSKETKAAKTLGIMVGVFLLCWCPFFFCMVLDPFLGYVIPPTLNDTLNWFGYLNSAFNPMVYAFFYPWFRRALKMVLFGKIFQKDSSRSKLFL
mouse TAAR1, sequence (Q923Y8 whole entry): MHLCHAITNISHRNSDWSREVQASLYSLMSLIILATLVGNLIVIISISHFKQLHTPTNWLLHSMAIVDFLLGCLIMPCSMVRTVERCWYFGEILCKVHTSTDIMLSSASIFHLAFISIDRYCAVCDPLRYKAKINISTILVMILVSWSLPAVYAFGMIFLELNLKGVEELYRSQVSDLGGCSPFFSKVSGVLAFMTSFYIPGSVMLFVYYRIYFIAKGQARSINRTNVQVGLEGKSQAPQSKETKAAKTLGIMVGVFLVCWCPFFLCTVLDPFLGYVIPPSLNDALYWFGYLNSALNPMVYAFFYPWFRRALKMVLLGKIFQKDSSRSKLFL

As for `CC(C)c1cc(C(=O)Nc2ccc([C@H]3CNCCO3)nc2)n(CC(F)(F)F)n1` [Example 98, 5-Isopropyl-N-[6-[(2R)-morpholin-2-yl]-3-pyridyl]-2-(2,2,2-trifluoroethyl)pyrazole-3-carboxamide], the values for the Ki on mouse TAAR1 and on rat TAAR1 were 0.24 µM and 0.0442 µM, respectively.

Take `O=C(Nc1ccc([C@H]2CNCCO2)nc1)c1cccc(C(F)(F)F)c1` [Example 55, N-[6-[(2R)-Morpholin-2-yl]-3-pyridyl]-3-(trifluoromethyl)benzamide]: the figures for the Ki on mouse TAAR1 and at rat TAAR1 were 0.0064 µM and 0.0221 µM, respectively.

Regarding `FC(F)(F)c1cccc(Nc2ccc([C@@H]3CNCCO3)nc2)n1` [Example 30, N-[6-[(2S)-Morpholin-2-yl]-3-pyridyl]-6-(trifluoromethyl)pyridin-2-amine], the Ki was 0.0034 µM at mouse TAAR1 and 0.0208 µM on rat TAAR1.

Consider `CCc1n[nH]c(C(=O)Nc2ccc([C@@H]3CNCCO3)nc2)c1C` [Example 67, (S)-3-Ethyl-4-methyl-N-(6-(morpholin-2-yl)pyridin-3-yl)-1H-pyrazole-5-carboxamide], for which the Ki was 0.0147 µM at mouse TAAR1 and 0.27 µM at rat TAAR1.

For the compound `O=C(Nc1ccc([C@H]2CNCCO2)nc1)c1ccc(C(F)(F)F)cc1` [Example 53, N-[6-[(2R)-Morpholin-2-yl]-3-pyridyl]-4-(trifluoromethyl)benzamide], the Ki stood at 0.0061 µM at mouse TAAR1 and 0.0718 µM at rat TAAR1.

On to `O=C(Nc1ccc([C@@H]2CNCCO2)nc1)c1[nH]nc(C(F)(F)F)c1Cl` [Example 43, 4-Chloro-N-[6-[(2S)-morpholin-2-yl]-3-pyridyl]-3-(trifluoromethyl)-1H-pyrazole-5-carboxamide], for which the Ki at mouse TAAR1 was 0.0474 µM; at rat TAAR1 it was 0.0838 µM.

In the case of `O=C(Nc1cccc(Cl)c1)Nc1cnc(C2CNCCO2)c(F)c1` (racemic) [Example 112, (RS)-1-(3-Chlorophenyl)-3-(5-fluoro-6-morpholin-2-yl-3-pyridyl)urea], the Ki turned out to be 0.0102 µM on mouse TAAR1 and 0.0286 µM on rat TAAR1.

`O=C(Nc1ccc([C@H]2CNCCO2)nc1)c1[nH]nc(C2CC2)c1Cl` [Example 60, 4-Chloro-3-cyclopropyl-N-[6-[(2R)-morpholin-2-yl]-3-pyridyl]-1H-pyrazole-5-carboxamide]: the Ki turned out to be 0.0096 µM at mouse TAAR1 and 0.0448 µM on rat TAAR1.

As for `O=C(Nc1ccc([C@H]2CNCCO2)nc1)c1[nH]nc(C(F)(F)F)c1Cl` [Example 63, 4-Chloro-N-[6-[(2R)-morpholin-2-yl]-3-pyridyl]-3-(trifluoromethyl)-1H-pyrazole-5-carboxamide], the Ki on mouse TAAR1 turned out to be 0.0495 µM; on rat TAAR1 it was 0.0613 µM.

With `CCc1n[nH]c(C(=O)Nc2ccc([C@@H]3CNCCO3)nc2)c1F` [Example 77, 3-Ethyl-4-fluoro-N-[6-[(2S)-morpholin-2-yl]-3-pyridyl]-1H-pyrazole-5-carboxamide], the Ki at mouse TAAR1 stood at 0.0121 µM; at rat TAAR1, 0.302 µM.

As to `FC(F)(F)c1ccc(Nc2ccc([C@H]3CNCCO3)nc2)cn1` [Example 27, 6-[(2R)-Morpholin-2-yl]-N-[6-(trifluoromethyl)-3-pyridyl]pyridin-3-amine], the Ki on mouse TAAR1 turned out to be 0.074 µM; at rat TAAR1, 1.1 µM.

Consider `CCCc1n[nH]c(C(=O)Nc2ccc([C@H]3CNCCO3)nc2)c1F` [Example 85, 4-Fluoro-N-[6-[(2R)-morpholin-2-yl]-3-pyridyl]-3-propyl-1H-pyrazole-5-carboxamide], for which the Ki at mouse TAAR1 came out at 0.0046 µM; at rat TAAR1, 0.15 µM.

As for `FC(F)(F)c1ccc(Nc2cnc(C3CNCCO3)nc2)cc1` (racemic) [Example 71, (RS)-2-Morpholin-2-yl-N-[4-(trifluoromethyl)phenyl]pyrimidin-5-amine], the Ki amounted to 0.0072 µM on mouse TAAR1 and 0.195 µM at rat TAAR1.

On to `CCc1n[nH]c(C(=O)Nc2ccc([C@H]3CNCCO3)nc2)c1Cl` [Example 82, 4-Chloro-3-ethyl-N-[6-[(2R)-morpholin-2-yl]-3-pyridyl]-1H-pyrazole-5-carboxamide], for which the Ki at mouse TAAR1 was determined as 0.0039 µM; on rat TAAR1 it was 0.0925 µM.

For the compound `O=C(Nc1ccc(C2CNCCO2)nc1)c1ccc(F)cc1` (racemic) [Example 14, (RS)-4-Fluoro-N-(6-morpholin-2-yl-3-pyridyl)benzamide], the Ki on mouse TAAR1 was found to be 0.0084 µM; at rat TAAR1, 0.917 µM.

For `O=C(Nc1ccc([C@@H]2CNCCO2)nc1)Nc1cccc(C(F)(F)F)c1` [Example 42, 1-[6-[(2S)-Morpholin-2-yl]-3-pyridyl]-3-[3-(trifluoromethyl)phenyl]urea], the figures for the Ki at mouse TAAR1 and on rat TAAR1 were 0.0038 µM and 0.003 µM, respectively.

For `O=C(Nc1ccc([C@@H]2CNCCO2)nc1)c1[nH]nc(C2CC2)c1Cl` [Example 40, 4-Chloro-3-cyclopropyl-N-[6-[(2S)-morpholin-2-yl]-3-pyridyl]-1H-pyrazole-5-carboxamide], the Ki worked out at 0.0089 µM at mouse TAAR1 and 0.0428 µM at rat TAAR1.

For `FC(F)(F)c1ccc(Nc2ccc([C@@H]3CNCCO3)nc2)nc1` [Example 29, N-[6-[(2S)-Morpholin-2-yl]-3-pyridyl]-5-(trifluoromethyl)pyridin-2-amine], the Ki on mouse TAAR1 is 0.0035 µM; at rat TAAR1 it was 0.0103 µM.

On to `O=C(Nc1ccc([C@@H]2CNCCO2)nc1)c1ccc(OCC(F)(F)F)nc1` [Example 36, N-[6-[(2S)-Morpholin-2-yl]-3-pyridyl]-6-(2,2,2-trifluoroethoxy)pyridine-3-carboxamide], for which the results for the Ki on mouse TAAR1 and on rat TAAR1 were 0.0066 µM and 0.0278 µM, respectively.

Turning to `Cc1cc(C(=O)Nc2ccc([C@H]3CNCCO3)nc2)nc(C(F)(F)F)n1` [Example 68, (R)-6-Methyl-N-(6-(morpholin-2-yl)pyridin-3-yl)-2-(trifluoromethyl)pyrimidine-4-carboxamide], the Ki worked out at 0.0731 µM on mouse TAAR1 and 0.0469 µM on rat TAAR1.

For `Fc1cc(Nc2ccc(C(F)(F)F)cn2)cnc1C1CNCCO1` (racemic) [Example 111, (RS)-5-Fluoro-6-morpholin-2-yl-N-[5-(trifluoromethyl)-2-pyridyl]pyridin-3-amine], the results for the Ki at mouse TAAR1 and on rat TAAR1 were 0.0128 µM and 0.176 µM, respectively.

For `Clc1ccc(Nc2ccc([C@H]3CNCCO3)nc2)cc1` [Example 24, N-(4-Chlorophenyl)-6-[(2R)-morpholin-2-yl]pyridin-3-amine], the Ki on mouse TAAR1 turned out to be 0.0124 µM; on rat TAAR1 it was 0.182 µM.

Turning to `O=C(Nc1ccc([C@@H]2CNCCO2)nc1)c1[nH]nc(C2CC2)c1F` [Example 80, 3-Cyclopropyl-4-fluoro-N-[6-[(2S)-morpholin-2-yl]-3-pyridyl]-1H-pyrazole-5-carboxamide], the Ki on mouse TAAR1 turned out to be 0.0065 µM; at rat TAAR1, 0.0856 µM.

For the compound `Fc1ccc(Nc2ccc(C3CNCCO3)nc2)cc1` (racemic) [Example 5, (RS)—N-(4-Fluorophenyl)-6-morpholin-2-yl-pyridin-3-amine], the Ki was 0.0065 µM on mouse TAAR1 and 0.372 µM at rat TAAR1.
